Format in all cases: cell-based
Assay [1] deals with drug-naïve and drug-resistant prostate cancer cell lines (six different cell lines). Description: MTT cell viability (antiproliferative) assay, GI50. The conditions noted are these: Homo sapiens, 168 h, read-out: GI50 (concentration required to inhibit cell growth by 50%), range over the six cell lines tested, 7 days. The text has this:
The new NGGAs (VNPP414 and VNPP433-3β) were identified from in vitro anti-proliferative activities of our in-house compounds assessed in several PC cell lines, including LNCaP, C4-2B, and CWR22Rv1 (22Rv1). […] It was recently reported that treatment of AR-expressing bladder cancer cell lines with enzalutamide induced up-regulation of tumor suppressor, p53, p21 and PTEN, and down-regulation of several oncogenic genes, such as c-myc, cyclin D1, and cyclin E [38]. […] We note that these cell-cycle studies were conducted in LNCaP cells. Inhibition of colony formations (clonogenicity assays) was also assessed by treating the parental CWR-R1 cells and two drug-resistant counterparts with Gal, VNPP433-3β, or ENZ.
(A) Comparative GI50 values of Gal, NGGAs, and enzalutamide (ENZ) in drug-naïve-/-resistant prostate cancer cells. (B) Gal and NGGAs induce G1 cell cycle arrest in LNCaP cells. (C) VNPP414 and VNPP433-3β deplete the cell cycle regulator, cyclin D1, and upregulate p21; “+” indicates specific treatments. (D) Gal cause dose-dependent depletion of cyclin D1. […] (F) Quantification of colony formation units (CFU) in drug-naive/resistant cells. Colony assays were repeated three times and colonies counted in four quadrants of the wells. […]
MTT assays were performed as described in our previous publications. […] Data was analyzed with GraphPad prism 4 software.

A further assay deals with T1, AR-V7 (Homo sapiens, UniProt P10275).
T1 construct: compound treatments (0–7.5 µM) of CWR22Rv1 cells for 72 h followed by western blot analysis of cells lysates; endogenous in cells; host or cells: CWR22Rv1
T1 sequence (P10275 1-644 isoform P10275-3): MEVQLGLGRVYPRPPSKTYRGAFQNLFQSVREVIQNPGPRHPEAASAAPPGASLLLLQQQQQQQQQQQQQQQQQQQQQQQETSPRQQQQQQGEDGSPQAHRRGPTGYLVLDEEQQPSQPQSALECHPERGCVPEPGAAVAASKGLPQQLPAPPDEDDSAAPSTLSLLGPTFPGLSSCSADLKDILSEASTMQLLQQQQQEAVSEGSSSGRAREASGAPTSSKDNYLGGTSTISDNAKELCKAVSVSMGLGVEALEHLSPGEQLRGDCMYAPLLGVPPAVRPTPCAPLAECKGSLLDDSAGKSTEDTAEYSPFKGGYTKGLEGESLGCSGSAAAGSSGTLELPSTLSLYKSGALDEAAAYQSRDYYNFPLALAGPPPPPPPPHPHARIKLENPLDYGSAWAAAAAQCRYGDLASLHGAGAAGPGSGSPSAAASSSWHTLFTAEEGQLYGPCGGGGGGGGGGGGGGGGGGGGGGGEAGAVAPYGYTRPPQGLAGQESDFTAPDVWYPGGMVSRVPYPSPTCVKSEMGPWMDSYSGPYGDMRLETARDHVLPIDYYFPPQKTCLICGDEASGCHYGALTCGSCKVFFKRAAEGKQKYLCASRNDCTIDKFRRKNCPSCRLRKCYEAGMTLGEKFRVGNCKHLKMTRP
The assay is described as follows: Protein level decrease by western blot, dose-response in CWR22Rv1 cells. Particulars: for times more effective (than Gal) in degrading AR-V7: from EC50 values. The text has this:
(§1) Figure 4 Impact of Gal and NGGAs on AR/AR-V7 and Mnk1/2-eIF4E signaling pathways. (A) Western blot showing the effects of Gal and VNPT55 (55) on Mnk1, Mnk2, and peIF4E. […] (D) Western blot showing dose-dependent effect of Gal on Mnk1, Mnk2, BMI-1, and Snail1 in drug-resistant CWR-R1(10E) cells. […] Note: the numbers in parentheses in Figure 4B are concentrations of the agents in µM.
(§2) We further determined the effects of lead NGGAs on f-AR, AR-V7 and Mnk1 protein levels in CWR22Rv1 cells.
(§3) Cells were lysed with radioimmunoprecipitation assay (RIPA) buffer (Sigma, St. Louis, MO, USA), supplemented with 1X protease inhibitors (Roche, Indianapolis, IN, USA), phosphatase inhibitors (Thermo Scientific, Waltham, MA, USA), 1 mmol/L EDTA and 1 mmol/L PMSF (Sigma).

The next assay deals with fAR (Homo sapiens, UniProt P10275). Described as above.
Excerpt: as §1, §2, §3

Read-outs that look alike come from different tables or passages of the source.

fAR, sequence (P10275 whole entry): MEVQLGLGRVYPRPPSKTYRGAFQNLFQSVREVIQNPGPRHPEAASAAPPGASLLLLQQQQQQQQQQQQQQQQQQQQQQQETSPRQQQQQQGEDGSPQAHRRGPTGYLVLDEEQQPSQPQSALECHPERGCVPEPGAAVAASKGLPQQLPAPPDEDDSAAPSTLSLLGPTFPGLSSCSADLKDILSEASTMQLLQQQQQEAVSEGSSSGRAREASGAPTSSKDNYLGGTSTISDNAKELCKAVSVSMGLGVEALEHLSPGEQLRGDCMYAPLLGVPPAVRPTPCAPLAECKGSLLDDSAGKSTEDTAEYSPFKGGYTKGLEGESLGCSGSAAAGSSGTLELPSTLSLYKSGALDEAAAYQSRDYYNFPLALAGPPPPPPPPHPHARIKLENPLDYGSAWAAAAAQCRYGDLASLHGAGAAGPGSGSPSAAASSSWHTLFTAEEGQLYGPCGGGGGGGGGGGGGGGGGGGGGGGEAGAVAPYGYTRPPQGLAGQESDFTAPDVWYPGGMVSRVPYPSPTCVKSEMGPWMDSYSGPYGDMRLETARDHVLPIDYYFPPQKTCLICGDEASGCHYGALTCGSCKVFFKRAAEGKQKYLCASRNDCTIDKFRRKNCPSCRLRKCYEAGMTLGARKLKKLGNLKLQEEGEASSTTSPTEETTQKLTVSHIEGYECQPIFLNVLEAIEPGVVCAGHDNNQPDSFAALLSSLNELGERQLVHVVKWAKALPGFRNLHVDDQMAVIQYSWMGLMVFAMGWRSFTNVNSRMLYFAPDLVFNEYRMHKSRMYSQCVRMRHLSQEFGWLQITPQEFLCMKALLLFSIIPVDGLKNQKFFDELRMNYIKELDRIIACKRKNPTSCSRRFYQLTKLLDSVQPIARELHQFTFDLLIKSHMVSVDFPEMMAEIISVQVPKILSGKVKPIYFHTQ

What is called EC50 is the concentration that produces a half-maximal response. Turning to `C[C@]12CC[C@H](n3ccnc3)CC1=CCC1C2CC[C@]2(C)C(n3cnc4ccccc43)=CCC12` (stereo partly drawn) [VNPP433-3β], in assay [1], the GI50 lay within 1.12 to 2.54 µM. In addition, at AR-V7, the “times more effective (than Gal) in degrading AR-V7” value was 3.7 times. Besides, the DC50 at AR-V7 (read-out: AR-V7 EC50, 0–7.5 µM, 72 h, western blot) is 1.34 ± 0.33 µM. Further, the EC50 at fAR (0–7.5 µM, 72 h, read-out: fAR EC50) came to 0.58 ± 0.002 µM.
Turning to `C[C@]12CC[C@H](OCc3ccncc3)CC1=CCC1C2CC[C@]2(C)C(n3cnc4ccccc43)=CCC12` (stereo partly shown) [VNPP414], the DC50 on AR-V7 (0–7.5 µM, 72 h, western blot, read-out: AR-V7 EC50) was 1.26 ± 0.05 µM. In addition, at AR-V7, the “times more effective (than Gal) in degrading AR-V7” value was determined as 3.9 times. On fAR (read-out: fAR EC50, 0–7.5 µM, 72 h), the 50% effective concentration (EC50) was found to be 0.84 ± 0.002 µM.

The record behind these values is publication PMC6895912 (Cancers, 2019).
